We go through one compound from PMC5218480 (PLoS ONE, 2017).

The subject of the assay is MV-4-11 cells. Briefly: Gene expression microarray analysis (Affymetrix PrimeView) and GSEA. Particulars: MV-4-11 cells, 48 hours. It counts as cell-based, human. Details: RFU PODN (11730768_x_at) / Fold change /veh PODN (11730768_x_at) / RFU LINC00158 (11744669_a_at) / Fold change /veh LINC00158 (11744669_a_at) / RFU DUSP10 (11751237_a_at) / Fold change /veh DUSP10 (11751237_a_at) / RFU ID3 (11757404_x_at) / Fold change /veh ID3 (11757404_x_at) / RFU PLEKHG5 (11737974_s_at) / Fold change /veh PLEKHG5 (11737974_s_at) / RFU LRRC4B (11730491_at) / Fold change /veh LRRC4B (11730491_at) / RFU GIMAP4 (11747438_a_at) / Fold change /veh GIMAP4 (11747438_a_at) / RFU KRT8 (11758183_x_at) / Fold change /veh KRT8 (11758183_x_at) / RFU CNN1 (11734310_a_at) / Fold change /veh CNN1 (11734310_a_at) / RFU VPS37D (11726825_at) / Fold change /veh VPS37D (11726825_at) / RFU C10orf10 (11716522_x_at) / Fold change /veh C10orf10 (11716522_x_at) / RFU KIR2DL2 /// KIR2DL4 /// KIR2DL5A /// KIR2DL5B /// KIR2DS1 /// KIR2DS2 /// KIR2DS3 /// KIR2DS4 /// KIR3DL3 /// KIR3DL3 /// KIR3DS1 (11738374_at) / Fold change /veh KIR2DL2 /// KIR2DL4 /// KIR2DL5A /// KIR2DL5B /// KIR2DS1 /// KIR2DS2 /// KIR2DS3 /// KIR2DS4 /// KIR3DL3 /// KIR3DL3 /// KIR3DS1 (11738374_at) / RFU C1QL1 (11718748_at) / Fold change /veh C1QL1 (11718748_at) / RFU TMPRSS4 (11747572_a_at) / Fold change /veh TMPRSS4 (11747572_a_at) / RFU HAMP (11756126_x_at) / Fold change /veh HAMP (11756126_x_at) / RFU RNFT2 (11725882_a_at) / Fold change /veh RNFT2 (11725882_a_at) / RFU NR4A2 (11747474_a_at) / Fold change /veh NR4A2 (11747474_a_at) / RFU ABCC12 (11746883_a_at) / Fold change /veh ABCC12 (11746883_a_at) / RFU TMEM136 (11760407_x_at) / Fold change /veh TMEM136 (11760407_x_at) / RFU CLDN22 /// WWC2 (11732394_at) / Fold change /veh CLDN22 /// WWC2 (11732394_at) / RFU HLA-DPB1 (11760878_x_at) / Fold change /veh HLA-DPB1 (11760878_x_at) / RFU SPINT1 (11716480_a_at) / Fold change /veh SPINT1 (11716480_a_at) / RFU GAP43 (11754022_s_at) / Fold change /veh GAP43 (11754022_s_at) / RFU A4GNT (11735810_at) / Fold change /veh A4GNT (11735810_at) / RFU PRB3 (11715151_x_at) / Fold change /veh PRB3 (11715151_x_at) / RFU TUBB4B (11761932_at) / Fold change /veh TUBB4B (11761932_at) / RFU CAPN14 (11732068_a_at) / Fold change /veh CAPN14 (11732068_a_at) / RFU TMCC2 (11721928_a_at) / Fold change /veh TMCC2 (11721928_a_at) / RFU IRGQ (11745062_a_at) / Fold change /veh IRGQ (11745062_a_at) / RFU FAM174B (11720279_a_at) / Fold change /veh FAM174B (11720279_a_at) / RFU TMPRSS4 (11748680_a_at) / Fold change /veh TMPRSS4 (11748680_a_at) / RFU FAM212B (11763350_a_at) / Fold change /veh FAM212B (11763350_a_at) / RFU PLEKHG5 (11743358_a_at) / Fold change /veh PLEKHG5 (11743358_a_at) / RFU ZSCAN30 (11745921_a_at) / Fold change /veh ZSCAN30 (11745921_a_at) / RFU CMKLR1 (11741424_a_at) / Fold change /veh CMKLR1 (11741424_a_at) / RFU LOC101060620 /// MAPK8IP1 (11723275_at) / Fold change /veh LOC101060620 /// MAPK8IP1 (11723275_at) / RFU SPTSSB (11747773_x_at) / Fold change /veh SPTSSB (11747773_x_at) / RFU PRSS12 (11739890_at) / Fold change /veh PRSS12 (11739890_at) / RFU BIN1 (11741810_x_at) / Fold change /veh BIN1 (11741810_x_at) / RFU WNT11 (11732464_a_at) / Fold change /veh WNT11 (11732464_a_at) / RFU C10orf10 (11716521_a_at) / Fold change /veh C10orf10 (11716521_a_at) / RFU C5orf56 (11738089_at) / Fold change /veh C5orf56 (11738089_at) / RFU CYB561 (11721691_x_at) / Fold change /veh CYB561 (11721691_x_at) / RFU ANKRD19P (11752326_a_at) / Fold change /veh ANKRD19P (11752326_a_at) / RFU OR2T12 /// OR2T33 /// OR2T8 (11738714_s_at) / Fold change /veh OR2T12 /// OR2T33 /// OR2T8 (11738714_s_at) / RFU VCAN (11748164_a_at) / Fold change /veh VCAN (11748164_a_at) / RFU JSRP1 (11732532_at) / Fold change /veh JSRP1 (11732532_at) / RFU KRTAP10-11 (11738290_x_at) / Fold change /veh KRTAP10-11 (11738290_x_at) / RFU MYO3A (11730013_a_at) / Fold change /veh MYO3A (11730013_a_at) / RFU EBF3 (11725865_a_at) / Fold change /veh EBF3 (11725865_a_at) / RFU CAMK2N1 (11719241_x_at) / Fold change /veh CAMK2N1 (11719241_x_at) / RFU C5orf56 (11738088_a_at) / Fold change /veh C5orf56 (11738088_a_at) / RFU OLFML3 (11715873_a_at) / Fold change /veh OLFML3 (11715873_a_at) / RFU LOC100653217 /// NTM (11731650_a_at) / Fold change /veh LOC100653217 /// NTM (11731650_a_at) / RFU MAPK11 (11762145_a_at) / Fold change /veh MAPK11 (11762145_a_at) / RFU FIZ1 (11724087_x_at) / Fold change /veh FIZ1 (11724087_x_at) / RFU OASL (11726364_x_at) / Fold change /veh OASL (11726364_x_at) / RFU SOX15 (11748057_x_at) / Fold change /veh SOX15 (11748057_x_at) / RFU CD79A (11719716_a_at) / Fold change /veh CD79A (11719716_a_at) / RFU HIST1H1D (11736915_at) / Fold change /veh HIST1H1D (11736915_at) / RFU CASKIN2 (11723855_a_at) / Fold change /veh CASKIN2 (11723855_a_at) / RFU LOC730098 (11760151_x_at) / Fold change /veh LOC730098 (11760151_x_at) / RFU OR4N2 (11742367_at) / Fold change /veh OR4N2 (11742367_at) / RFU PRRT2 (11749266_a_at) / Fold change /veh PRRT2 (11749266_a_at) / RFU SNX32 (11753110_a_at) / Fold change /veh SNX32 (11753110_a_at) / RFU CDHR5 (11726645_a_at) / Fold change /veh CDHR5 (11726645_a_at) / RFU RCAN1 (11760418_a_at) / Fold change /veh RCAN1 (11760418_a_at) / RFU FAM167A (11723789_a_at) / Fold change /veh FAM167A (11723789_a_at) / RFU FAM26E (11764081_at) / Fold change /veh FAM26E (11764081_at) / RFU ISYNA1 (11749810_s_at) / Fold change /veh ISYNA1 (11749810_s_at) / RFU ACY1 (11761880_at) / Fold change /veh ACY1 (11761880_at) / RFU 11764098_at / Fold change /veh 11764098_at / RFU SAMD14 (11745864_x_at) / Fold change /veh SAMD14 (11745864_x_at) / RFU NPB (11741838_a_at) / Fold change /veh NPB (11741838_a_at) / RFU TMPRSS6 (11731388_a_at) / Fold change /veh TMPRSS6 (11731388_a_at) / RFU KRTAP10-2 (11738614_at) / Fold change /veh KRTAP10-2 (11738614_at) / RFU ARHGAP8 /// PRR5-ARHGAP8 (11727945_x_at) / Fold change /veh ARHGAP8 /// PRR5-ARHGAP8 (11727945_x_at) / RFU KRTAP5-7 /// NADSYN1 (11734609_at) / Fold change /veh KRTAP5-7 /// NADSYN1 (11734609_at) / RFU RASL12 (11751679_a_at) / Fold change /veh RASL12 (11751679_a_at) / RFU CDKN2B (11736163_a_at) / Fold change /veh CDKN2B (11736163_a_at) / RFU PRF1 (11729649_at) / Fold change /veh PRF1 (11729649_at) / RFU, ZNF638 /// ZNF638-IT1 / Fold change vs veh, ZNF638 /// ZNF638-IT1 / RFU, PANK3 / Fold change vs veh, PANK3 / RFU, SH3YL1 / Fold change vs veh, SH3YL1 / RFU, ZEB2 / Fold change vs veh, ZEB2 / RFU, NRIP1 / Fold change vs veh, NRIP1 / RFU, PTTG1IP / Fold change vs veh, PTTG1IP / RFU, CAPN2 / Fold change vs veh, CAPN2 / RFU, MED14 / Fold change vs veh, MED14 / RFU, SNORA58 / Fold change vs veh, SNORA58 / RFU, C1orf63 / Fold change vs veh, C1orf63 / RFU, LRRFIP1 / Fold change vs veh, LRRFIP1 / RFU, NDUFAF7 / Fold change vs veh, NDUFAF7 / RFU, SLC12A2 / Fold change vs veh, SLC12A2 / RFU, IBTK / Fold change vs veh, IBTK / RFU, ESF1 / Fold change vs veh, ESF1 / Fold change vs veh, TMEM50B / RFU, TAOK1 / Fold change vs veh, TAOK1 / RFU, ACBD3 / Fold change vs veh, ACBD3 / RFU, TMA16 / Fold change vs veh, TMA16 / RFU, RWDD3 / Fold change vs veh, RWDD3 / RFU, BCAT1 / Fold change vs veh, BCAT1 / RFU, EDEM3 / Fold change vs veh, EDEM3 / RFU, TMEM33 / Fold change vs veh, TMEM33 / RFU, WDR75 / Fold change vs veh, WDR75 / RFU, AHCTF1 / Fold change vs veh, AHCTF1 / RFU, TFRC / Fold change vs veh, TFRC / RFU, ZDHHC17 / Fold change vs veh, ZDHHC17 / RFU, NOM1 / Fold change vs veh, NOM1 / RFU, ARL8B / Fold change vs veh, ARL8B / RFU, ZBTB11 / Fold change vs veh, ZBTB11 / RFU, TAMM41 / Fold change vs veh, TAMM41 / RFU, KIAA1704 /// LOC100996395 / Fold change vs veh, KIAA1704 /// LOC100996395 / RFU, ING1 / Fold change vs veh, ING1 / RFU, TRMT61B / Fold change vs veh, TRMT61B / RFU, FUBP3 / Fold change vs veh, FUBP3 / RFU, TP53 / Fold change vs veh, TP53 / RFU, TNKS2 / Fold change vs veh, TNKS2 / RFU, ZFP14 / Fold change vs veh, ZFP14 / RFU, ACTR2 / Fold change vs veh, ACTR2 / RFU, PPP3R1 / Fold change vs veh, PPP3R1 / RFU, PIK3R1 / Fold change vs veh, PIK3R1 / RFU, HNRNPA1 / Fold change vs veh, HNRNPA1 / RFU, RNF170 / Fold change vs veh, RNF170 / RFU, ZNF28 / Fold change vs veh, ZNF28 / RFU, RNGTT / Fold change vs veh, RNGTT / RFU, OGT / Fold change vs veh, OGT / RFU, BRD1 / Fold change vs veh, BRD1 / RFU, MARS / Fold change vs veh, MARS / RFU, ZNF655 / Fold change vs veh, ZNF655 / RFU, FAHD1 / Fold change vs veh, FAHD1 / RFU, BDP1 / Fold change vs veh, BDP1 / RFU, LRRCC1 / Fold change vs veh, LRRCC1 / RFU, ARID1A / Fold change vs veh, ARID1A / RFU, ZNF146 / Fold change vs veh, ZNF146 / RFU, ZNF330 / Fold change vs veh, ZNF330 / RFU, GPN3 / Fold change vs veh, GPN3 / RFU, C9orf123 / Fold change vs veh, C9orf123 / RFU, N4BP2L2 / Fold change vs veh, N4BP2L2 / RFU, ARFIP1 / Fold change vs veh, ARFIP1 / RFU, FAM179B / Fold change vs veh, FAM179B / RFU, BCL10 / Fold change vs veh, BCL10 / RFU, UHRF1BP1L / Fold change vs veh, UHRF1BP1L / RFU, BET1 / Fold change vs veh, BET1 / RFU, CNOT2 / Fold change vs veh, CNOT2 / RFU, ZNF268 / Fold change vs veh, ZNF268 / Fold change vs veh, ZNF507 / RFU, DGCR2 / Fold change vs veh, DGCR2 / RFU, WDSUB1 / Fold change vs veh, WDSUB1 / Fold change vs veh, HSP90B1 /// MIR3652 / RFU, ADSS / Fold change vs veh, ADSS / RFU, GK / Fold change vs veh, GK / RFU, ZNF148 / Fold change vs veh, ZNF148 / RFU, TAF9 / Fold change vs veh, TAF9 / RFU, SLC1A5 / Fold change vs veh, SLC1A5 / RFU, SLMO2 / Fold change vs veh, SLMO2 / RFU, ABCC4 / Fold change vs veh, ABCC4 / RFU, LOC101060439 /// RAP1B / Fold change vs veh, LOC101060439 /// RAP1B / RFU, RFX7 / Fold change vs veh, RFX7 / RFU, GTPBP10 / Fold change vs veh, GTPBP10 / RFU, CNEP1R1 / Fold change vs veh, CNEP1R1 / RFU, BIVM-ERCC5 /// ERCC5 / Fold change vs veh, BIVM-ERCC5 /// ERCC5 / RFU, ILF3 / Fold change vs veh, ILF3 / RFU 11762660_at / Fold change /veh 11762660_at / RFU VCAN (11757783_s_at) / Fold change /veh VCAN (11757783_s_at) / RFU DDX43 (11728927_at) / Fold change /veh DDX43 (11728927_at) / RFU KRT8 (11758188_x_at) / Fold change /veh KRT8 (11758188_x_at) / RFU NKD1 (11759106_at) / Fold change /veh NKD1 (11759106_at) / RFU SRD5A1 (11742802_a_at) / Fold change /veh SRD5A1 (11742802_a_at) / RFU TPSAB1 /// TPSB2 (11721975_s_at) / Fold change /veh TPSAB1 /// TPSB2 (11721975_s_at) / RFU GSTM3 (11746129_a_at) / Fold change /veh GSTM3 (11746129_a_at) / RFU IL23R (11737362_x_at) / Fold change /veh IL23R (11737362_x_at) / RFU TMEM51 (11727254_a_at) / Fold change /veh TMEM51 (11727254_a_at) / RFU PIWIL2 (11732686_x_at) / Fold change /veh PIWIL2 (11732686_x_at) / RFU ORM1 (11744905_x_at) / Fold change /veh ORM1 (11744905_x_at) / RFU CCDC152 (11743942_at) / Fold change /veh CCDC152 (11743942_at) / RFU ECM1 (11717891_a_at) / Fold change /veh ECM1 (11717891_a_at) / RFU IL23R (11748794_a_at) / Fold change /veh IL23R (11748794_a_at) / RFU TNFAIP8L3 (11732012_x_at) / Fold change /veh TNFAIP8L3 (11732012_x_at) / RFU MBOAT4 (11741988_at) / Fold change /veh MBOAT4 (11741988_at) / RFU 11764193_at / Fold change /veh 11764193_at / RFU TMEM53 (11763286_at) / Fold change /veh TMEM53 (11763286_at) / RFU MAGEB2 (11727129_at) / Fold change /veh MAGEB2 (11727129_at) / RFU TMEM200A (11744735_a_at) / Fold change /veh TMEM200A (11744735_a_at) / RFU CCDC152 (11751479_a_at) / Fold change /veh CCDC152 (11751479_a_at) / RFU FAM211A (11726209_a_at) / Fold change /veh FAM211A (11726209_a_at) / RFU RGS16 (11746705_a_at) / Fold change /veh RGS16 (11746705_a_at) / RFU VCAN (11755009_s_at) / Fold change /veh VCAN (11755009_s_at) / RFU RHOB (11743442_s_at) / Fold change /veh RHOB (11743442_s_at) / RFU RGS16 (11720943_a_at) / Fold change /veh RGS16 (11720943_a_at) / RFU RGS16 (11720944_at) / Fold change /veh RGS16 (11720944_at) / RFU, VPS4B / Fold change vs veh, VPS4B / RFU, CREB1 / Fold change vs veh, CREB1 / RFU, DNAJC13 / Fold change vs veh, DNAJC13 / RFU, GNAQ / Fold change vs veh, GNAQ / RFU, CDK5R1 / Fold change vs veh, CDK5R1 / RFU, ZRANB3 / Fold change vs veh, ZRANB3 / RFU, CUL4A / Fold change vs veh, CUL4A / RFU, CCNY / Fold change vs veh, CCNY / RFU, UFL1 / Fold change vs veh, UFL1 / RFU, COG3 / Fold change vs veh, COG3 / RFU, DIAPH2 / Fold change vs veh, DIAPH2 / RFU, SKA2 / Fold change vs veh, SKA2 / RFU, AFF3 / Fold change vs veh, AFF3 / RFU, LMF1 / Fold change vs veh, LMF1 / RFU, IPO11 / Fold change vs veh, IPO11 / RFU, DFFB / Fold change vs veh, DFFB / RFU, FOXP1 / Fold change vs veh, FOXP1 / RFU, CARD8 / Fold change vs veh, CARD8 / RFU, STRN3 / Fold change vs veh, STRN3 / RFU, ADK / Fold change vs veh, ADK / RFU, RASSF2 / Fold change vs veh, RASSF2 / RFU, WIPF1 / Fold change vs veh, WIPF1 / RFU, LARP1B / Fold change vs veh, LARP1B / RFU, RASA1 / Fold change vs veh, RASA1 / RFU, RB1 / Fold change vs veh, RB1 / RFU, PPFIA1 / Fold change vs veh, PPFIA1 / RFU, MAT2A / Fold change vs veh, MAT2A / RFU, CCT5 / Fold change vs veh, CCT5 / RFU, WDR92 / Fold change vs veh, WDR92 / RFU, CUX1 / Fold change vs veh, CUX1 / RFU, TTC7A / Fold change vs veh, TTC7A / RFU, TMEM135 / Fold change vs veh, TMEM135 / RFU, DEPTOR / Fold change vs veh, DEPTOR / RFU, CPM / Fold change vs veh, CPM / RFU, DNAJB6 / Fold change vs veh, DNAJB6 / RFU, CACNA2D3 / Fold change vs veh, CACNA2D3 / RFU, DTX4 / Fold change vs veh, DTX4 / RFU, TFCP2 / Fold change vs veh, TFCP2 / RFU, GMCL1 /// GMCL1P1 / Fold change vs veh, GMCL1 /// GMCL1P1 / RFU, AEBP2 / Fold change vs veh, AEBP2 / RFU, SNHG1 /// SNORD22 /// SNORD25 /// SNORD26 /// SNORD27 /// SNORD28 /// SNORD29 /// SNORD31 / Fold change vs veh, SNHG1 /// SNORD22 /// SNORD25 /// SNORD26 /// SNORD27 /// SNORD28 /// SNORD29 /// SNORD31 / Fold change (Aza/veh), C12orf56 (ProbeSet 11735607_a_at) / Fold change (ACY-1035/veh), C12orf56 (ProbeSet 11735607_a_at) / Fold change (Aza/veh), FGFR1OP (ProbeSet 11751329_s_at) / Fold change (ACY-1035/veh), FGFR1OP (ProbeSet 11751329_s_at) / Fold change (Aza/veh), VPS36 (ProbeSet 11739960_a_at) / Fold change (ACY-1035/veh), VPS36 (ProbeSet 11739960_a_at) / RFU SYPL1 (11715823_x_at) / Fold change /veh SYPL1 (11715823_x_at) / RFU IGFBP7 (11715501_s_at) / Fold change /veh IGFBP7 (11715501_s_at) / RFU REEP3 (11722064_at) / Fold change /veh REEP3 (11722064_at) / RFU IGLL1 (11728026_x_at) / Fold change /veh IGLL1 (11728026_x_at): dose or concentration left out as unconfirmed.

Take `Nc1ccc(-c2cccs2)cc1NC(=O)c1ccc2c(c1)cc(C1CC1)n2CCN1CCOCC1` [ACY-1035]: the “Fold change /veh FAM26E (11764081_at)” value was 0.88.
